Test results from ChEMBL document CHEMBL2407030, “Novel nicotinic acetylcholine receptor agonists containing carbonyl moiety as a hydrogen bond acceptor” (Bioorg Med Chem Lett, 2013).
Activity calls are given as the source filed them. The rule behind the calls is not given here.

Columns and labels:
[1] = target: T1, Neuronal acetylcholine receptor; alpha4/beta2 (Homo sapiens, UniProt P17787+P43681); assay: Agonist activity at alpha4beta2 nACHR in human SHEP1 cell membranes assessed as stimulation of calcium flux by FLIPR assay; assay type: cell-based
T1 sequence (P17787 whole entry): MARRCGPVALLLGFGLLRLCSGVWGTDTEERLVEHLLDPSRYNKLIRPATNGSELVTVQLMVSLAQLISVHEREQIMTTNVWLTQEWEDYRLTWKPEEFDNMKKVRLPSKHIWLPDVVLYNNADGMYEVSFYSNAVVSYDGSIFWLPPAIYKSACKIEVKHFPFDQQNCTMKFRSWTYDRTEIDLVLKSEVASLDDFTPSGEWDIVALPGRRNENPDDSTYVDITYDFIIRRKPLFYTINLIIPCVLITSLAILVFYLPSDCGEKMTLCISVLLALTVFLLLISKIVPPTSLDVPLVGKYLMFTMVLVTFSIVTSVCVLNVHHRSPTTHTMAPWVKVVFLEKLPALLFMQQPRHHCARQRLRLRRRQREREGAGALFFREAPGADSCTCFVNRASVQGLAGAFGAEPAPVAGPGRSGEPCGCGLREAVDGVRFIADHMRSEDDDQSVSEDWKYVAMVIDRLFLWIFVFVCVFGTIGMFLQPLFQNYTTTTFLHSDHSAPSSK
T1 sequence (P43681 whole entry): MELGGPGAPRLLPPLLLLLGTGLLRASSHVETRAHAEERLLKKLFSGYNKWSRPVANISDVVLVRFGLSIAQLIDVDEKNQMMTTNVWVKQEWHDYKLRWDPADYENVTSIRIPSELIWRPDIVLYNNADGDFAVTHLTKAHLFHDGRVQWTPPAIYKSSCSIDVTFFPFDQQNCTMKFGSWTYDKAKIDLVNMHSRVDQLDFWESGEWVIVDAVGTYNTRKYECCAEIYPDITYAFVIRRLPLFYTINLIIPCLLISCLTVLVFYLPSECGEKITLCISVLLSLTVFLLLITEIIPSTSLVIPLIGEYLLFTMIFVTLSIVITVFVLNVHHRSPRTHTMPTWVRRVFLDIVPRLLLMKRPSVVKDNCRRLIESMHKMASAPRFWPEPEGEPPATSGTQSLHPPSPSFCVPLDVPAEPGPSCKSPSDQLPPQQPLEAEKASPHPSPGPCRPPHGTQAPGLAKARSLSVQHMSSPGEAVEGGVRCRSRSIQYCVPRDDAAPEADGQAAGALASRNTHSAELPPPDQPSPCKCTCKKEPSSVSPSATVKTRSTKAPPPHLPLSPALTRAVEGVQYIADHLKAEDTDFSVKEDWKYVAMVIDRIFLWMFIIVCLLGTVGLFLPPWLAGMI

[2] = target: T2, Neuronal acetylcholine receptor; alpha3/beta4 (Homo sapiens, UniProt P30926+P32297); assay: Agonist activity at human alpha3beta4 nACHR expressed in CHO cell membranes assessed as stimulation of calcium flux by FLIPR assay relative to control; assay type: cell-based
T2 sequence (P30926 whole entry): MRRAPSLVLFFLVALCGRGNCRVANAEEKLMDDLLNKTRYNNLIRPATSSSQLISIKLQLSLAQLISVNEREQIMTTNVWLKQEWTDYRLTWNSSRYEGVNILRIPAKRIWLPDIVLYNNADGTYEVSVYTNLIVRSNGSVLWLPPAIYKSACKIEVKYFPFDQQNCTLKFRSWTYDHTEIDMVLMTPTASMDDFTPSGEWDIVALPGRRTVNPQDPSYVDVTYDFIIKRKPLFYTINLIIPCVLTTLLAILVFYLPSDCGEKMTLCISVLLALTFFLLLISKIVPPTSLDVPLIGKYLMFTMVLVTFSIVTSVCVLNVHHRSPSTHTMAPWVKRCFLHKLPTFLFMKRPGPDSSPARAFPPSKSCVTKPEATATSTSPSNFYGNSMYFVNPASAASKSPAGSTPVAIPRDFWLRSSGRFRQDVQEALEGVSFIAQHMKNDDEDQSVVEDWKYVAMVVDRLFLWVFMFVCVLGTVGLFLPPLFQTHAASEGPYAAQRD
T2 sequence (P32297 whole entry): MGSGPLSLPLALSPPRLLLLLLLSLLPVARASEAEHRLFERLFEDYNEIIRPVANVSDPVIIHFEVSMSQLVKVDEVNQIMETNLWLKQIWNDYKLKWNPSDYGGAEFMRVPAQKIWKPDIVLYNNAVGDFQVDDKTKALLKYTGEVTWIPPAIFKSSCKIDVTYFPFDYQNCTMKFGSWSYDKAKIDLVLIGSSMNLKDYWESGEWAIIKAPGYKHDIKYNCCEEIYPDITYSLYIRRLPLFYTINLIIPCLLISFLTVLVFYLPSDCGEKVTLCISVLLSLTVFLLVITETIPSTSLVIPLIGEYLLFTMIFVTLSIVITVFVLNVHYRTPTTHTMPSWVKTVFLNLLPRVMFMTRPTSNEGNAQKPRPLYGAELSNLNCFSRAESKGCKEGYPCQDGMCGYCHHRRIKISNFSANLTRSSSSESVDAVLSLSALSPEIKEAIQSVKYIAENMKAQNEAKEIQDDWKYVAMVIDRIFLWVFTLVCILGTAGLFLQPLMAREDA

[3] = target: T1, Neuronal acetylcholine receptor; alpha4/beta2; assay: Agonist activity at alpha4beta2 nACHR in human SHEP1 cell membranes assessed as stimulation of calcium flux by FLIPR assay relative to control; assay type: cell-based
[4] = target: T2, Neuronal acetylcholine receptor; alpha3/beta4; assay: Agonist activity at human alpha3beta4 nACHR expressed in CHO cell membranes assessed as stimulation of calcium flux by FLIPR assay; assay type: cell-based
[5] = target: T1, Neuronal acetylcholine receptor; alpha4/beta2; assay: Displacement of [3H]Nicotine from alpha4beta2 nACHR in human SHEP1 cell membranes after 2 hrs by liquid scintillation counting analysis
[6] = target: T2, Neuronal acetylcholine receptor; alpha3/beta4; assay: Displacement of [3H]Epibatidine from human alpha3beta4 nACHR expressed in CHO cell membranes after 2 hrs by liquid scintillation counting analysis
[7] = target: Neuronal acetylcholine receptor subunit alpha-7 (Homo sapiens, UniProt P36544); assay: Displacement of [3H]Epibatidine from human alpha7 nACHR expressed in CHO cell membranes after 2 hrs by liquid scintillation counting analysis
Chain of Neuronal acetylcholine receptor subunit alpha-7 (P36544 whole entry): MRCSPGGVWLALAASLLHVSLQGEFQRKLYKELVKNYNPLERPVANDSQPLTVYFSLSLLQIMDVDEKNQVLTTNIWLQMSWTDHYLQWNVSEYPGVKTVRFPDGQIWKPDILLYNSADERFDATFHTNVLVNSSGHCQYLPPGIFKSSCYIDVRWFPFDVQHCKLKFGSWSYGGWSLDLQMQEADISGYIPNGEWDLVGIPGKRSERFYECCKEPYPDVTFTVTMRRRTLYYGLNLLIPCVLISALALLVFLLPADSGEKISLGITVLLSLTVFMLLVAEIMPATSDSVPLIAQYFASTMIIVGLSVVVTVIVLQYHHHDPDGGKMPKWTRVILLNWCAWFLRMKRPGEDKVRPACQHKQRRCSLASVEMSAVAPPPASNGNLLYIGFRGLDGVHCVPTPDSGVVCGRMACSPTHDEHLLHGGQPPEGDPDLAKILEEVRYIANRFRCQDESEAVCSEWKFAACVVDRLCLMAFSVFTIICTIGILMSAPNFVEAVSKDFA

[8] = tested on: Rattus norvegicus; assay: Cognitive enhancing effect in rat at 0.1 to 3 mg/kg, po by novel object recognition test; assay type: functional, organism-based
[9] = tested on: Rattus norvegicus; assay: Cognitive enhancing effect in rat at 0.003 mg/kg, po by novel object recognition test; assay type: functional, organism-based; parameters: dose 0.003 mg/kg

Compound	EC50 [1] [µM]	Emax [2] [%]	Emax [3] [%]	EC50 [4] [µM]	Ki [5] [µM]	Ki [6] [µM]	Ki [7] [µM]	Activity [8]	Activity [9]
CC(C)NC(=O)[C@H]1C[C@@H]2CNC[C@@H](C2)C1	1.9	25	64	27	0.023	6	11		
O=C(C1CC1)[C@H]1C[C@@H]2CNC[C@@H](C2)C1	7.1	10	22	1.3	0.043	4.1			
O=C(c1ccco1)[C@H]1C[C@@H]2CNC[C@@H](C2)C1					0.11		15		
CNC(=O)[C@H]1C[C@@H]2CNC[C@@H](C2)C1	2	5	65	100	0.0019				
CCCNC(=O)[C@H]1C[C@@H]2CNC[C@@H](C2)C1	2.4	24	54	15	0.006	4	10		
CN1CCC[C@H]1c1cccnc1		100	100						
COC(=O)C1CC2CNCC(C2)C1 (mixture of isomers)					2.4				
O=C([C@@H]1C[C@@H]1F)N1CC2CNCC2C1 (mixture of isomers)	0.93	88	120	13	0.017	0.86	6.9		
O=C([C@H]1C[C@H]1F)N1CC2CNCC2C1 (mixture of isomers)	1	140	130	24	0.005	0.38	1.4		
O=C([C@H]1C[C@@H]1F)N1CC2CNCC2C1 (mixture of isomers)	0.9	90	140	14	0.03	0.81	2.7		
O=C([C@@H]1C[C@H]1F)N1CC2CNCC2C1 (mixture of isomers)	0.19	150	130	8.4	0.009	0.42	0.99		
C[C@H]1C[C@H]1C(=O)N1CC2CNCC2C1 (mixture of isomers)	19	110	100	10	0.018	2	4.5		
C[C@@H]1C[C@@H]1C(=O)N1CC2CNCC2C1 (mixture of isomers)	1.2	180	140	1.4	0.001	0.28	0.35		
C[C@@H]1C[C@H]1C(=O)N1CC2CNCC2C1 (mixture of isomers)	1.7	110	100	14	0.004	0.36	1.9		
C[C@H]1C[C@@H]1C(=O)N1CC2CNCC2C1 (mixture of isomers)	5.6	26	68	34	0.043	13	100		
O=C([C@@H]1C[C@@H]1F)N1CC2CNCC(C2)C1 (mixture of isomers)	0.4	90	11	11	0.0052	1.2	0.3		
O=C([C@H]1C[C@H]1F)N1CC2CNCC(C2)C1 (mixture of isomers)	9.2	130	7	2.1	0.0014	0.15	0.1		

Compound	EC50 [1] [µM]	Emax [2] [%]	Emax [3] [%]	EC50 [4] [µM]	Ki [5] [µM]	Ki [6] [µM]	Ki [7] [µM]	Activity [8]	Activity [9]
O=C([C@@H]1C[C@H]1F)N1CC2CNCC(C2)C1 (mixture of isomers)	0.43	130	77	0.39	0.001	0.036	0.01		
O=C([C@H]1C[C@@H]1F)N1CC2CNCC(C2)C1 (mixture of isomers)	2.7	210	84	8	0.0073	0.32	0.4		
C[C@@H]1C[C@H]1C(=O)N1CC2CNCC(C2)C1 (mixture of isomers)	12	120	23	1.6	0.001	0.1	0.03		
C[C@H]1C[C@@H]1C(=O)N1CC2CNCC(C2)C1 (mixture of isomers)	10	89	21	8.3	0.028	0.6	0.3		
C[C@@H]1C[C@@H]1C(=O)N1CC2CNCC(C2)C1 (mixture of isomers)	1.9	160	5	0.08	0.0002	0.01	0.005		
C[C@H]1C[C@H]1C(=O)N1CC2CNCC(C2)C1 (mixture of isomers)	100	140	0.5	0.3	0.0029	0.1	0.1		
CC(=O)N1CC2CNCC2C1 (mixture of isomers)	2.6	36	110	23	0.038	14			
CCC(=O)N1CC2CNCC2C1 (mixture of isomers)	1.3	130	120	18	0.012	2.1	4	Active	Active
CC(=O)N1CC2CNCC(C2)C1 (mixture of isomers)	9.9	110	34	13		5.5	3.3		
CCC(=O)N1CC2CNCC(C2)C1 (mixture of isomers)	1.9	130	83	5.9	0.008	20	1.6		
COC(=O)N1CC2CNCC(C2)C1 (mixture of isomers)	5.2		65		0.02				
COC(=O)N1CC2CNCC2C1 (mixture of isomers)		85		16	0.023	14			
CNC(=O)[C@H]1C[C@H]2CNC[C@H]2C1 (mixture of isomers)					0.18		27		
O=C(C1CC1)[C@H]1C[C@H]2CNC[C@H]2C1 (mixture of isomers)	0.018	130	120	0.93	0.0005	0.07	0.14		
O=C(c1ccco1)[C@H]1C[C@H]2CNC[C@H]2C1 (mixture of isomers)	1.6	40	94	11	0.013	2.2	3.4		
COC(=O)[C@H]1C[C@H]2CNC[C@H]2C1 (mixture of isomers)	1.2	100	130	14	0.008	0.4	13		
